Results taken from patent US20260297095A1, “NOVEL PYRROLOTRIAZINE DERIVATIVE AND USE THEREOF” (Pelemed Co., Ltd., priority 2024, published 2026).
Where two headings read alike, the source gives them in different places.

Columns and labels:
[1] = test system: KYSE-70 esophageal cancer cell line; assay: Cell growth inhibition of KYSE-70 (Sulforhodamine B); assay type: cell-based; settings: KYSE-70, 72 hours, read-out: KYSE70 GI50
Procedure, shortened: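 KYSE-70 cells (YES1-amplified) in RPMI-1640 with 10% FBS were seeded 24 h before treatment with compound at 0.0046–10 µM final. After 72 h, cells were TCA-fixed and stained with sulforhodamine B, with absorbance read at 510 nm. GI50 was derived with a time-zero plate set to 0% and the vehicle control to 100%, in duplicate tests.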

YES1 kinase = YES1 kinase (Homo sapiens, UniProt P07947); assay: YES1 kinase inhibition, ADP Glo assay (Promega); assay type: biochemical; settings: for inhibition at 0.01 µM / YES1 enzyme, % inhibition, 10 nM: compound 10 nM; for inhibition at 0.01 µM: read-out: YES1 enzyme, % inhibition, 10 nM; for inhibition at 0.1 µM / YES1 enzyme, % inhibition, 100 nM: compound 100 nM; for inhibition at 0.1 µM: read-out: YES1 enzyme, % inhibition, 100 nM; for IC50: class symbols, read-out: YES1 enzyme, IC50
Procedure, shortened: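 YES1 kinase was preincubated 10 min with compound in Mn2+/DTT-containing kinase buffer, then reacted 40 min at room temperature with ATP/substrate; ADP was detected by ADP-Glo luminescence. Activity, background-subtracted and normalised to negative control, is given as % inhibition at 1, 10 and 100 nM, plus IC50.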

TEAD (Homo sapiens) = target: T1, TEAD (Homo sapiens); assay: TEAD inhibition, KYSE-70 TEAD luciferase reporter cell line; assay type: cell-based; settings: KYSE-70 TEAD luciferase reporter cells, 24 hours, normalized by cell viability; read-out: KYSE70 TEAD IC50
T1 construct: lentiviral TEAD luciferase reporter read-out
Method: To evaluate the inhibitory activity on TEAD activity in KYSE-70 cells in which YES1 is overexpressed, the following experiment was performed.
TEAD luciferase reporter lentivirus (BPS Bioscience; TEAD luciferase reporter lentivirus) was co-cultured with KYSE-70 cell line for 48 hours, and then 1 μg/ml puromycin (Invitrogen) was added to the culture to induce cell death only in cells that were not infected with the virus, thereby generating a KYSE-70 cell line into which the TEAD luciferase reporter was introduced. The KYSE-70 TEAD luciferase reporter cell line was cultured in RPMI-1640 (Capricorn) supplemented with 10% FBS (Cellgro). The cells were seeded 24 hours prior to compound treatment into two 96-well F-bottom clear plates (Greiner) and two white clear bottom 96-well plates (Greiner), at 20,000 cells in 180 μL medium per well.
The 10 mM compound was diluted 100-fold in medium to prepare a 100 μM compound, then placed in a 96-well plate and further 3-fold diluted in medium to prepare a compound plate with concentrations ranging from 0.046 μM to 100 μM. 20 μL of each compound from the drug plate was injected into the cell-seeded plates to prepare the final concentrations 0.0046 μM to 10 μM. For TEAD activity measurement, 24 hours after compound treatment on the white clear bottom 96-well plate, 100 μL of medium was removed from each well, and 100 μL of One-Step™ Luciferase Assay System solution was added. After reacting at room temperature for 15 minutes, luminescence intensity was measured using a microplate reader (VICTOR X3, PerkinElmer). Since TEAD activity values needed to be normalized by cell viability, a cell viability assay was also performed. For measuring cell viability, 24 hours after compound treatment on the 96-well F-bottom clear plate, 50 μL of 33% trichloroacetic acid was added to each well and was fixed by incubating at 4° C. for 1 hour. After that, the plate was washed 5 times with sterile water, and 100 μL of 0.04% Sulforhodamine B solution in 1% acetic acid was added to react for 1 hour to stain the cells. After staining, the plates were washed 4 times with 1% acetic acid solution and completely dried. Then the Sulforhodamine B bound to cellular proteins was completely dissolved with 10 mM Tris base solution (pH 10.5). The absorbance was measured at a wavelength of 510 nm using a microplate reader (TECAN, sunrise microplate reader). The TEAD activity value and cell viability value were normalized, and a graph was drawn using the GraphPad Prism version 5.0 program, and the IC50 value was calculated.

T1 sequence (P07947 whole entry): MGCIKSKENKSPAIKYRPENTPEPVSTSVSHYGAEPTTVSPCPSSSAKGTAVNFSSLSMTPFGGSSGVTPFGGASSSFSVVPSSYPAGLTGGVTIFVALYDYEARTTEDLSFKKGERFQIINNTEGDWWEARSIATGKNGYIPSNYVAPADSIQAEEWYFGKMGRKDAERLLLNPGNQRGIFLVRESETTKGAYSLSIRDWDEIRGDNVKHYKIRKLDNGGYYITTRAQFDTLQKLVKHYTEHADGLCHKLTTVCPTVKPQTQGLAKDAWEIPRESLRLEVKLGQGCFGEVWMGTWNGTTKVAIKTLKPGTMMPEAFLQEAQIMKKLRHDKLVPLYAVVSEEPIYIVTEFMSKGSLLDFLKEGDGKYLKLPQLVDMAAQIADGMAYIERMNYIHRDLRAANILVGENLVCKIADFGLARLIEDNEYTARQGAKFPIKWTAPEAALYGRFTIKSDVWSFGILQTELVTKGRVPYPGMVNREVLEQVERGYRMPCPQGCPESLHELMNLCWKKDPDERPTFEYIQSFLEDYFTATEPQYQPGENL
Sequence of YES1 kinase (P07947 whole entry): as above

| Molecule | GI50 ([1]; Homo sapiens) | inhibition at 0.01 µM (YES1 kinase) | inhibition at 0.1 µM (YES1 kinase) | IC50 (YES1 kinase) | GI50 [1] | IC50 (TEAD (Homo sapiens)) | YES1 enzyme, % inhibition, 10 nM (YES1 kinase) | YES1 enzyme, % inhibition, 100 nM (YES1 kinase) |
| --- | --- | --- | --- | --- | --- | --- | --- | --- |
| COc1cc(-c2cc(NC3CCNCC3)n3ncnc(N)c23)ccc1NC(=O)OC(C)(C)C [Example 120, tert-butyl (4-(4-amino-7-(piperidin-4-ylamino)pyrrolo[2,1-f][1,2,4]triazin-5-yl)-2-methoxyphenyl)carbamate] | 100 to 1000 nM | 40% | 78% | – | – | – | – | – |
| COc1cc(-c2cc(N[C@H]3CC[C@@H](N)CC3)n3ncnc(N)c23)ccc1NC(=O)OC(C)(C)C [Example 121, tert-butyl (4-(4-amino-7-(((1s,4s)-4-aminocyclohexyl)amino)pyrrolo[2,1-f][1,2,4]triazin-5-yl)-2-methoxyphenyl)carbamate] | 100 to 1000 nM | 50% | 77% | – | – | – | – | – |
| COc1cc(-c2cc(N3CCC(C)(CN)CC3)n3ncnc(N)c23)ccc1NC(=O)OC(C)(C)C [Example 123, tert-butyl (4-(4-amino-7-(4-(aminomethyl)-4-methylpiperidin-1-yl)pyrrolo[2,1-f][1,2,4]triazin-5-yl)-2-methoxyphenyl)carbamate] | ≤ 100 nM | – | – | ≤ 100 nM | – | – | – | – |
| COc1cc(-c2c(F)c(N3CCC(N)CC3)n3ncnc(N)c23)ccc1NC(=O)OC(C)(C)C [Example 127, tert-butyl (4-(4-amino-7-(4-aminopiperidin-1-yl)-6-fluoropyrrolo[2,1-f][1,2,4]triazin-5-yl)-2-methoxyphenyl)carbamate] | ≤ 100 nM | 67% | 88% | ≤ 100 nM | – | – | – | – |
| COc1cc(-c2c(F)c(N3CCC(N(C)C)CC3)n3ncnc(N)c23)ccc1NC(=O)OC(C)(C)C [Example 128, tert-butyl (4-(4-amino-7-(4-(dimethylamino)piperidin-1-yl)-6-fluoropyrrolo[2,1-f][1,2,4]triazin-5-yl)-2-methoxyphenyl)carbamate] | ≤ 100 nM | 72% | 92% | ≤ 100 nM | – | – | – | – |
| CNC1CCN(c2c(F)c(-c3ccc(NC(=O)OC(C)(C)C)c(OC)c3)c3c(N)ncnn23)CC1 [Example 129, tert-butyl (4-(4-amino-6-fluoro-7-(4-(methylamino)piperidin-1-yl)pyrrolo[2,1-f][1,2,4]triazin-5-yl)-2-methoxyphenyl)carbamate] | ≤ 100 nM | 70% | 92% | ≤ 100 nM | – | – | – | – |
| Nc1ncnn2c(N3CCC(N)CC3)cc(-c3ccc(Oc4ccccc4)cc3)c12 [Example 135, 7-(4-aminopiperidin-1-yl)-5-(4-phenoxyphenyl)pyrrolo[2,1-f][1,2,4]triazin-4-amine] | ≤ 100 nM | 62% | 87% | – | – | – | – | – |
| CN(C)C1CCN(c2cc(-c3ccc(Oc4ccccc4)cc3)c3c(N)ncnn23)CC1 [Example 136, 7-(4-(dimethylamino)piperidin-1-yl)-5-(4-phenoxyphenyl)pyrrolo[2,1-f][1,2,4]triazin-4-amine] | ≤ 100 nM | 64% | 90% | – | – | – | – | – |
| COc1cc(-c2cc(N3CCC(N)CC3)n3ncnc(N)c23)ccc1NC(=O)c1ccco1 [Example 137, N-(4-(4-amino-7-(4-aminopiperidin-1-yl)pyrrolo[2,1-f][1,2,4]triazin-5-yl)-2-methoxyphenyl)furan-2-carboxamide] | 100 to 1000 nM | – | – | ≤ 100 nM | – | – | – | – |
| COc1cc(-c2cc(N3CCC(N)CC3)n3ncnc(N)c23)ccc1NC(=O)c1ccoc1 [Example 138, N-(4-(4-amino-7-(4-aminopiperidin-1-yl)pyrrolo[2,1-f][1,2,4]triazin-5-yl)-2-methoxyphenyl)furan-3-carboxamide] | > 10000 nM | – | – | ≤ 100 nM | – | – | – | – |
| tert-butyl (4-(4-amino-7-(4-(dimethylamino)-3-methoxyphenyl)pyrrolo[2,1-f][1,2,4]triazin-5-yl)-2-methoxyphenyl)carbamate [Example 5] | – | – | – | – | 100 to 1000 nM | 100 to 1000 nM | 38% | 68% |
| tert-butyl (4-(4-amino-7-(4-(dimethylamino)-4-methylpiperidin-1-yl)pyrrolo[2,1-f][1,2,4]triazin-5-yl)-2-methoxyphenyl)carbamate [Example 13] | – | – | – | – | ≤ 100 nM | ≤ 100 nM | 77% | 93% |
| tert-butyl (4-(4-amino-7-(4-(methylamino)piperidin-1-yl)pyrrolo[2,1-f][1,2,4]triazin-5-yl)-2-methoxyphenyl)carbamate [Example 58] | – | – | – | ≤ 100 nM | 100 to 1000 nM | ≤ 100 nM | – | – |
| tert-butyl (4-(4-amino-7-(4-(tert-butyl)piperazin-1-yl)pyrrolo[2,1-f][1,2,4]triazin-5-yl)-2-methoxyphenyl)carbamate [Example 16] | – | – | – | – | 1000 to 10000 nM | 1000 to 10000 nM | 30% | 36% |
| tert-butyl (4-(4-amino-7-(4-aminopiperidin-1-yl)-6-methylpyrrolo[2,1-f][1,2,4]triazin-5-yl)-2-methoxyphenyl)carbamate [Example 78] | – | – | – | – | ≤ 100 nM | ≤ 100 nM | – | – |
| tert-butyl (4-(4-amino-7-(6-(dimethylamino)pyridin-3-yl)pyrrolo[2,1-f][1,2,4]triazin-5-yl)-2-methoxyphenyl)carbamate [Example 6] | – | – | – | – | 1000 to 10000 nM | ≤ 100 nM | 41% | 46% |
